Assay results from patent US12611409B2, “Combination therapy using a chemokine receptor 2 (CCR2) antagonist and a PD-1/PD-L1 inhibitor” (CHEMOCENTRYX, INC., priority 2017, dated 2026).

Columns and labels:
[1] = Compound 1 plasma levels in the CT26 study; format: in vivo, Balb/c mice; conditions: oral gavage 30 mg/kg daily; day 3 and day 23 of dosing
Method: Six days after subcutaneous CT26 implantation into the flanks of 9 wk female Balb/c mice (2.5×10^5/mouse), the recipients were randomized based on tumor size and treatment was begun. Mice received anti-PD-1 (RPM1-14 from BioXcell, Inc., catalog number BE0146) by IP injection on days 7, 10, 17 and 21 (200 μg/mouse), and received CCR2 antagonist Compound 1 (30 or 60 mg/kg) or vehicle by oral gavage every 24 hours starting day 7.

[2] = system: M-MDSCs and CD8 T cells in the CT26 tumor microenvironment; test: Quantitation of tumor-infiltrating cells per gram of CT26 tumor (flow cytometry); format: in vivo, Balb/c mice
Text: CT26 is a Balb/c-derived colon adenocarcinoma that generates tumors when injected subcutaneously into Balb/c mice. Single cells were isolated from established subcutaneous CT26 tumors (28 days after injection) by mincing, digesting the tissue briefly with collagenase-D, and passing the slurry through 100 μm sieves. Cells were stained for flow cytometry and gated on live CD45^+ tumor-infiltrating leukocytes (FIG. 2).
Tumor-infiltrating cytotoxic T cells (Thy1^+/CD8^+) were quantitated by weighing the tumors before dissociation, allowing cells-per-gram of tumor to be calculated.
M-MDSCs were quantitated by weighing the tumors before dissociation, allowing cells-per-gram of tumor to be calculated.
The ratio in control treated mice (veh+iso) was 1:1, meaning one M-MDSC for every CD8 T cell. […] Treatment of Compound 1 alone yielded 10 CD8 T cells for every M-MDSC cell. Treatment with α-PD-1 […].

C[C@H]1CN([C@@H]2CC[C@@](C(=O)N3COc4c(cc(C(F)(F)F)cc4C(F)(F)F)C3)(C3CC3)OC2)CC[C@@H]1c1cccc(C(=O)O)c1 [Compound 1]
trough plasma levels [1]: at or above those required for full receptor coverage | M-MDSCs in the CT26 tumor microenvironment (cells per gram of tumor) ([2]; by day 24): reduces the population of M-MDSCs | ratio of CD8 T cells to M-MDSCs ([2]; calculated from cell counts of FIG. 10 and FIG. 11, control (veh+iso) 1:1): 10 CD8 T cells for every M-MDSC
